Reference: article PMC6890717, “Conversion of Cytochrome P450 2D6 of Human Into a FRET-Based Tool for Real-Time Monitoring of Ajmalicine in Living Cells” (Frontiers in Bioengineering and Biotechnology, 2019)

What was measured:
[1] = test system: Saccharomyces cerevisiae/URA3 strain BY4247; assay: Real-time monitoring of ajmalicine in yeast cells expressing FLIP-Ajn (confocal); format: cell-based; conditions: 10 mM ajmalicine
Procedure: Gateway-cloned pYES-DEST_ECFP_CYP2D6_Venus was transformed in Saccharomyces cerevisiae/URA3 strain BY4247. The transformed yeast cells were cultured in synthetic defined (SD) medium containing dextrose (2%) as a source of carbon and galactose (1%) for induction. The expressed yeast cells were subjected to confocal microscopic analysis with Leica TCS-SPE scan head and 63x objective lens with oil immersion system. The expressed culture was provided with 10 mM ajmalicine. Ratio of emission intensities of Venus/ECFP were recorded for 10 min and data were collected at every 20 s intervals.

E. coli BL21(DE3) cells = assay: Real-time monitoring of ajmalicine in bacterial cells expressing FLIP-Ajn; format: cell-based, Escherichia coli; conditions: 10 mM ajmalicine added externally; increased from 0.2; 30 min recording
Procedure: The developed recombinant construct pRSET-B_ECFP_CYP2D6_Venus (FLIP-Ajn) was introduced in E. coli BL21(DE3) cells and grown at 37°C (150 rpm) in an incubator shaker until O.D.600 of the bacterial growth reached 0.6. The cells were then treated with 0.5 mM IPTG and kept for 24 h at 21°C with continuous shaking for the expression of the nanosensor protein. The real-time monitoring of ajmalicine in the bacterial cells was carried out by the addition of 10 mM ajmalicine to the bacterial culture placed in the multi-well plates. Ratio of emission intensities of Venus/ECFP were recorded for 30 min and data were collected at every 5 min intervals. The control experiment includes the bacterial cells without ajmalicine. The excitation filters/slits used were same as described in the previous analysis.

[2] = test system: Catharanthus roseus cells; assay: FRET ratio in transformed plant suspension culture (confocal); format: cell-based; conditions: slow and consistent addition of ajmalicine to suspension culture; increased from 0.7
Procedure: Leaf explants were used in the study for initiating callus. The segments of Catharanthus roseus leaves were collected from the herbal garden of Jamia Hamdard, New Delhi. The collected explants were then washed continuously for 20 min under tap water. The explants were then treated with 0.5% cetrimide and 0.1% HgCl2 for 10 and 5 min, respectively. Further sequential washing with 70% alcohol and sterilized distilled water for 1 min were performed. The culturing of sterile explants was done on MS (Murashige and Skoog, [1962]) medium containing 0.5 μM 2,4-D, 3% sucrose, and 0.62% agar. The pH of the medium was maintained to 5.65, and the cultured tubes were kept in a culture room at 25 ± 2°C.
Agrobacterium tumefaceins strain EHA105 were transformed with pEarleyGate100_ECFP_CYP2D6_Venus, and the suspension culture was initiated after inoculating a single colony of transformed Agrobacterium strain in LB medium. The medium was supplemented with […], and […], and the culture was maintained at 28°C for 36 h. […]
Suspension culture of Catharanthus roseus transformed with pEarleyGate100_ECFP_CYP2D6_Venus was observed under a Leica confocal microscope with a 10x objective. The culture was subjected to fluorescence analysis, and the ratio of Venus/ECFP emission intensities was recorded after excitation at 430 nm. […]

HEK-293T cells = assay: Real-time monitoring of ajmalicine in transfected animal cells (confocal); format: cell-based, human; conditions: 10 mM ajmalicine; 0.4 ± 0.05 at 0 s
Procedure: The HEK-293T (human embryonic kidney) cells were cultured in Dulbecco's modified Eagle's medium containing 50 μg/ml ampicillin, 10% fetal calf serum, and CO2 in an incubator shaker at 37°C. Calcium phosphate-mediated transient transfection of HEK-293T cells with pCDNA_ECFP_CYP2D6_Venus was carried out in a 6-well culture plate and was allowed to express for 2 days. Washing buffer comprised of 50 mM NaCl, 1 mM MgCl2, 5 mM KCl, 5 mM D-glucose, and 25 mM HEPES (pH 7.2–7.4). After a gap of 2 days after transfection, the cultured cells were set for imaging analysis using a confocal microscope with 1.53 numerical aperture, cooled charge-coupled camera, and 63x oil immersion objective lens. The culture was supplemented with 10 mM ajmalicine and the images were taken. Ratio of emission intensities of Venus/ECFP were recorded for 10 min. The laser setting used for the analysis was same for both yeast and animal cells. Data were collected after an interval of 20 s and the exposure time set for acquiring images was 300 ms.

[3] = test system: FLIP-Ajn (ECFP_CYP2D6_Venus, human Cytochrome P450 2D6); assay: Specificity analysis of FLIP-Ajn with CYP2D6 inhibitors/substrates (FRET ratio); conditions: 10 mM compound added to FLIP-Ajn; change <0.2 regarded as insignificant
Procedure: Characterization of nanosensor was performed using microplate reader (Synergy H1, Biotek, USA). […] After spectral analysis, pH dependence, specificity, and affinity of the nanosensor were studied. […] Specificity testing of the developed nanosensor was carried out by the addition of 10 mM of various CYP2D6 inhibitors/substrates to FLIP-Ajn.

| Compound | increased FRET ratio ([1]; Figure 8) | FRET ratio after addition of ajmalicine ([1]; increased from 0.65 within 10 min) | FRET ratio after addition of ajmalicine (E. coli BL21(DE3) cells) | FRET ratio after addition of ajmalicine [2] | FRET ratio at 400 s (HEK-293T cells) | FRET ratio change relative to control [3] |
| --- | --- | --- | --- | --- | --- | --- |
| COC(=O)C1=CO[C@@H](C)[C@H]2CN3CCc4c([nH]c5ccccc45)[C@@H]3C[C@H]12 [ajmalicine] | ~ 1 | 1.61 | 0.4 | 3.9 | 0.85 ± 0.05 | – |
| COC(=O)C1=CO[C@@H](C)[C@H]2Cn3ccc4c5ccccc5nc-4c3C[C@H]12 [serpentine] | – | – | – | – | – | ~ 0.14 |
